What was measured:
[1] = system: Mycobacterium phlei IFO 3158; assay: paper disk antibacterial test, Mycobacterium phlei; format: cell-based; conditions: for The diameter of cell growth inhibition zone against M. Phlei: 2 μg/disc; for the diameter of cell growth inhibition zone: Mycobacterium phlei IFO 3158, 20 μg/disc
Procedure: (§1) Methanol solution of each tested substance with specific concentration was sunk on a paper disk with diameter of 8 mm (Thick, Toyo-roshi) and dried, which was placed on a plate of each bacterium. After culture under the conditions suitable for each bacterium, the diameter of cell growth was measured, The results are shown in Table 4, 5 and 6.

[2] = system: Candida albicans IFO 5994; assay: paper disk test, Candida albicans IFO 5994; format: cell-based; conditions: 20 μg/disc
Procedure: as §1

[3] = system: Escherichia coli AB 1157; assay: paper disk antibacterial test, Escherichia coli AB 1157; format: cell-based; conditions: 20 μg/disc
Procedure: as §1

[4] = system: Bacillus subtilis IFO 3513; assay: paper disk antibacterial test, Bacillus subtilis IFO 3513; format: cell-based; conditions: 20 μg/disc; for the diameter of cell growth inhibition zone: ( ) represents partial inhibition
Procedure: as §1

[5] = system: peptidoglycan synthesis; assay: inhibitory activity on peptidoglycan synthesis (crude enzyme, UDP-[3H]GlcNAc incorporation); format: biochemical, Escherichia coli; conditions: 0.1 μg/ml
Procedure: Crude enzyme and substrate UDP-MurNAc-pentapeptide were prepared from Escherichia coli and Bacillus subtilis respectively according to a reference (J. Biol. Chem., 243, 3180 (1968)). Enzymatic reaction was carried out by mixing 5 μl of 1M Tris-HCl (pH 7.5), 10 μl of 0.1M MgCl2, 5 μl of 2 mM UDP-MurNAc-pentapeptide, 5 μl of enzyme solution(15 mg/ml protein concentration), 5 μl of sample, 5 μl of UDP-[U-^3H]GlcNAc (10 μCi/ml, 25.8 Ci/mmol., Du'pont) and 15 μl of water at 37° C. for 60 minutes and […]. After ice-cooling, it was trapped on a GF/C glass filter(2.4 cm, Whatman). And after adding scintillator thereto, radiation thereof was counted. Inhibitory % was calculated by comparing the count of control.

[6] = system: BALB/3T3 cells; assay: cytotoxicity test (MTT); format: cell-based; conditions: 3 days culture
Procedure: BALB/3T3 cells (100 μl) were inoculated into 10% FBS added DMEM medium (Gibco) in 96 well plate so as to be 1×10^5 cells/ml under 5% CO2 at 37° C., which was cultured overnight. The test substance dissolved in methanol was added thereto, which was cultured for more 3 days and further kept cultured for 4 hours after adding 10 μl of 2.5 mg/ml MTT reagent (Sigma). After removing supernatant, 100 μl of DMSO was added thereto and kept it overnight. The absorbance thereof at 540 nm was determined to detect viable cells.

[7] = system: Staphylococcus aureus IFO 12732; assay: paper disk antibacterial test, Staphylococcus aureus IFO 12732; format: cell-based; conditions: 20 μg/disc
Procedure: as §1

[8] = system: Escherichia coli BE 1186; assay: paper disk antibacterial test, Escherichia coli BE 1186; format: cell-based; conditions: 20 μg/disc, ( ) represents partial inhibition
Procedure: as §1

| Compound | The diameter of cell growth inhibition zone against M. Phlei ([1]; Table 5) [mm] | The diameter of cell growth inhibition zone against M. Phlei ([1]; Table 6) | the diameter of cell growth inhibition zone [1] [mm] | the diameter of cell growth inhibition zone [2] [mm] | the diameter of cell growth inhibition zone [3] [mm] | the diameter of cell growth inhibition zone [4] [mm] | Inhibitory activity on peptidoglycan synthesis [5] [%] | Cytotoxicity against BALB/3T3 (IC50) [6] [µg/mL] | the diameter of cell growth inhibition zone [7] [mm] | the diameter of cell growth inhibition zone [8] [mm] | the diameter of cell growth inhibition zone, partial inhibition (value in brackets) [4] |
| --- | --- | --- | --- | --- | --- | --- | --- | --- | --- | --- | --- |
| CCCCCC=CCC=CCCCC(CC(=O)OC1CN(C)C(C(OC2OC(CN)C(O)C2OS(=O)(=O)O)C2OC(n3ccc(=O)[nH]c3=O)C(O)C2O)C(=O)N(C)C1C(=O)O)OC(=O)CC(C)CC(=O)O (centres unmarked) [Liposidomycins A, reference compound] | 0 | 0 mm | 18.9 | 0 | 0 | 0 | 95 | >25 | 0 |  |  |
| CCCCCC=CCC=CCCCC(CC(=O)OC1CN(C)C(C(OC2OC(CN)C(O)C2O)C2OC(n3ccc(=O)[nH]c3=O)C(O)C2O)C(=O)N(C)C1C(=O)O)OC(=O)CC(C)CC(=O)O (centres unmarked) [Liposidomycins A-(III)] | 11.62 | 14.3^− mm | 24.8 | 0 | 0 | 21.0 | 96 | >25 | 0 | 17.8 |  |
| CCCCCCCCCCCC(CC(=O)OC1CN(C)C(C(OC2OC(CN)C(O)C2OS(=O)(=O)O)C2OC(n3ccc(=O)[nH]c3=O)C(O)C2O)C(=O)N(C)C1C(=O)O)OC(=O)CC(C)CC(=O)O (centres unmarked) [Liposidomycins C, reference compound] | 0 |  | 22.1 | 0 | 0 | 0 |  |  | 0 | 0 |  |
| CCCCCCCCCCCC(CC(=O)OC1CN(C)C(C(OC2OC(CN)C(O)C2O)C2OC(n3ccc(=O)[nH]c3=O)C(O)C2O)C(=O)N(C)C1C(=O)O)OC(=O)CC(C)CC(=O)O (centres unmarked) [Liposidomycins C-(III)] | 16.21 |  | 30.3 | 0 | 0 | 17.8 |  |  | 0 | 14.3 | (23.7) mm |
| CCCCCCCCC=CCCCC(CC(=O)OC1CN(C)C(C(OC2OC(CN)C(O)C2O)C2OC(n3ccc(=O)[nH]c3=O)C(O)C2O)C(=O)N(C)C1C(=O)O)OC(=O)CC(C)CC(=O)O (centres unmarked) [Liposidomycins G-(III)] | 16.68 |  |  |  |  |  |  |  |  |  |  |
| CCCCCC=CCC=CCCCCCC(CC(=O)OC1CN(C)C(C(OC2OC(CN)C(O)C2O)C2OC(n3ccc(=O)[nH]c3=O)C(O)C2O)C(=O)N(C)C1C(=O)O)OC(=O)CC(C)CC(=O)O (centres unmarked) [Liposidomycins K-(III)] | 12.27 |  | 23.3 | 0 | 0 | 13.0 |  |  | 0 | 13.5 |  |
| CCCCCC=CCC=CCCCCCC(CC(=O)OC1CN(C)C(C(OC2OC(CN)C(O)C2OS(=O)(=O)O)C2OC(n3ccc(=O)[nH]c3=O)C(O)C2O)C(=O)N(C)C1C(=O)O)OC(=O)CC(C)CC(=O)O (centres unmarked) [Liposidomycins K] | 13.15 |  | 28.6 | 0 | 0 |  |  |  | 0 |  |  |
| CC(C)CCCCCCCCCCC(CC(=O)OC1CN(C)C(C(OC2OC(CN)C(O)C2OS(=O)(=O)O)C2OC(n3ccc(=O)[nH]c3=O)C(O)C2O)C(=O)N(C)C1C(=O)O)OC(=O)CC(C)CC(=O)O (centres unmarked) [Liposidomycins L] | 14.08 |  |  |  |  |  |  |  |  |  |  |
| CCCCCCCCCCCCCC(CC(=O)OC1CN(C)C(C(OC2OC(CN)C(O)C2O)C2OC(n3ccc(=O)[nH]c3=O)C(O)C2O)C(=O)N(C)C1C(=O)O)OC(=O)CC(C)CC(=O)O (centres unmarked) [Liposidomycins M-(III)] | 15.49 |  | 25.7 | 0 | 0 | 14.8 |  |  | 0 |  |  |
| CCCCCCCCCCCCCC(CC(=O)OC1CN(C)C(C(OC2OC(CN)C(O)C2OS(=O)(=O)O)C2OC(n3ccc(=O)[nH]c3=O)C(O)C2O)C(=O)N(C)C1C(=O)O)OC(=O)CC(C)CC(=O)O (centres unmarked) [Liposidomycins M] | 16.86 |  | 27.2 | 0 | 0 | 9.7 |  |  | 0 | 0 | (13.0) mm |
| CCCCCC=CCC=CCC(CC(=O)OC1CN(C)C(C(OC2OC(CN)C(O)C2O)C2OC(n3ccc(=O)[nH]c3=O)C(O)C2O)C(=O)N(C)C1C(=O)O)OC(=O)CC(C)CC(=O)O (centres unmarked) [Liposidomycins Y-(III)] | 0 |  |  |  |  |  |  |  |  |  |  |
| CCCCCCCCC=CCC(CC(=O)OC1CN(C)C(C(OC2OC(CN)C(O)C2O)C2OC(n3ccc(=O)[nH]c3=O)C(O)C2O)C(=O)N(C)C1C(=O)O)OC(=O)CC(C)CC(=O)O (centres unmarked) [Liposidomycins Z-(III)] | 13.74 |  | 26.3 | 0 | 0 | 22.2 |  |  | 0 | 18.8 |  |
| CCCCCCCCC=CCC(CC(=O)OC1CN(C)C(C(OC2OC(CN)C(O)C2OS(=O)(=O)O)C2OC(n3ccc(=O)[nH]c3=O)C(O)C2O)C(=O)N(C)C1C(=O)O)OC(=O)CC(C)CC(=O)O (centres unmarked) [Liposidomycins Z] | 0 |  |  | 0 | 0 | 0 |  |  | 0 |  |  |
| Tunicamycin [TM] |  |  |  |  |  |  | 10 | 0.05 |  |  |  |
